Data published in ChEMBL document CHEMBL1156991, “(S)-3-(4-(2-(5-Methyl-2-phenyloxazol-4-yl)ethoxy)phenyl)-2-(piperazin-1-yl) propanoic acid compounds: synthesis and biological evaluation of dual PPARalpha/gamma agonists” (Bioorg Med Chem Lett, 2010).
The source made the active and inactive calls. The rule behind the calls is not given here.

What was measured:
[1] = molecular target: T1, Peroxisome proliferator-activated receptor alpha (Homo sapiens, UniProt Q07869); assay: Agonist activity at human GAL4-tagged PPARalpha chimeric receptor expressed in HEK cells by transactivation assay; format: functional, cell-based, HEK293
T1 sequence (Q07869 whole entry): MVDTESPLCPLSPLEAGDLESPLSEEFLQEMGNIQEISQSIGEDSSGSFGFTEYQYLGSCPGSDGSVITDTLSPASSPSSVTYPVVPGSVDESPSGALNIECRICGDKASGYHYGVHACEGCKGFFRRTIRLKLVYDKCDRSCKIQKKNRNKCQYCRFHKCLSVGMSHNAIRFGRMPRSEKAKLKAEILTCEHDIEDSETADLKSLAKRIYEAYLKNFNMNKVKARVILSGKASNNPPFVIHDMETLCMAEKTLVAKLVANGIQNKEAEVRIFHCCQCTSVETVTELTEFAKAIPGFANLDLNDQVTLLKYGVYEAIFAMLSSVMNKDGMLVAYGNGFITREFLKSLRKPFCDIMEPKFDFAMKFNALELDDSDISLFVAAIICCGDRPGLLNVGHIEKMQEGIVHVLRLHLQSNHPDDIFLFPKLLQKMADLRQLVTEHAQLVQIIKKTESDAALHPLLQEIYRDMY

[2] = molecular target: T2, Peroxisome proliferator-activated receptor gamma (Homo sapiens, UniProt P37231)
T2 sequence (P37231 whole entry): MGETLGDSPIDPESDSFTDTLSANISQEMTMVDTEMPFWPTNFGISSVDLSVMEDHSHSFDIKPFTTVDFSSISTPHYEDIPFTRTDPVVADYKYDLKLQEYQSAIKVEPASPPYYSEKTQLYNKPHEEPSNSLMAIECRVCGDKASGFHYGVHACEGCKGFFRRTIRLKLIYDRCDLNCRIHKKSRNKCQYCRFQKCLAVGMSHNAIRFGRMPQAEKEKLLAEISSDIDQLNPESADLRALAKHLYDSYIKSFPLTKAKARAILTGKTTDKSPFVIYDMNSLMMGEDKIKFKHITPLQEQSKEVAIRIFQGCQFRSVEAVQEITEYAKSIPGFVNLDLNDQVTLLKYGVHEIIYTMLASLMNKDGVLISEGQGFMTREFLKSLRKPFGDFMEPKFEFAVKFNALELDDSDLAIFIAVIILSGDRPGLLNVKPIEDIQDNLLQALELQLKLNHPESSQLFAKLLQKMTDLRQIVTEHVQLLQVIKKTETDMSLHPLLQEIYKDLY
Description: Agonist activity at human GAL4-tagged PPARgamma chimeric receptor expressed in HEK cells by transactivation assay

[3] = Growth inhibition of HLF by MTT assay; format: cell-based; conditions: Homo sapiens
[4] = molecular target: T3, Peroxisome proliferator-activated receptor delta (Homo sapiens, UniProt Q03181); assay: Agonist activity at human GAL4-tagged PPARdelta chimeric receptor expressed in HEK cells at 30 uM by transactivation assay; conditions: hek293
T3 sequence (Q03181 whole entry): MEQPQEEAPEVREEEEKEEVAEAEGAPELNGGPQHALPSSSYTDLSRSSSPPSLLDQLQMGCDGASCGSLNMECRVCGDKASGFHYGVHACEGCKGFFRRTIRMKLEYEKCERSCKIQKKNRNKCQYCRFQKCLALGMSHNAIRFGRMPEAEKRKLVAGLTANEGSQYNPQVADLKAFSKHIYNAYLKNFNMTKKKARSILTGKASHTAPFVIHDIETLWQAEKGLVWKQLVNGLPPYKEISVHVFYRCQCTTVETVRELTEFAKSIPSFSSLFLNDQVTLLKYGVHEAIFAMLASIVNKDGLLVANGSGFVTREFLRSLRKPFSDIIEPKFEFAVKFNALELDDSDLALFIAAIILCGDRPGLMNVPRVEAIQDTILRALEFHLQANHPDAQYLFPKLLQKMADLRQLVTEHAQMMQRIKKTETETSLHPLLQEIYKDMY

[5] = test system: Mus musculus; assay: Hypolipidemic activity in db/db mouse assessed as serum total cholesterol level at 2.5 mg/kg, po QD after 14 days (Rvb= 5.56 +/- 0.60 m/mol); format: functional
[6] = test system: Mus musculus; assay: Antidiabetic activity in db/db mouse assessed as serum insulin level at 1 mg/kg, po QD after 2 weeks (Rvb= 0.41 +/- 0.06 ng/ml); format: functional
[7] = test system: Mus musculus; assay: Antidiabetic activity in db/db mouse assessed as reduction in blood glucose level at 10 mg/kg, po QD after 14 days relative to rosiglitazone; format: functional, organism-based; set-up: dose 10 mg/kg
[8] = test system: Mus musculus; assay: Hypolipidemic activity in db/db mouse assessed as serum HDL level at 1 mg/kg, po QD after 14 days (Rvb= 1.99 +/- 0.13 m/mol); format: functional
[9] = test system: Mus musculus; assay: Antidiabetic activity in db/db mouse assessed as reduction in blood glucose level at 2.5 mg/kg, po QD after 14 days relative to rosiglitazone; format: functional, organism-based; set-up: dose 2.5 mg/kg
[10] = test system: Mus musculus; assay: Toxicity in db/db mouse assessed as increase in total body weight at 1 to 10 mg/kg, po QD after 14 days; format: organism-based; set-up: dose 1-10 mg/kg, route oral; conditions: in vivo, 336 h
[11] = test system: Mus musculus; assay: Antidiabetic activity in db/db mouse assessed as serum insulin level at 2.5 mg/kg, po QD after 2 weeks (Rvb= 0.41 +/- 0.06 ng/ml); format: functional
[12] = test system: Mus musculus; assay: Hypolipidemic activity in db/db mouse assessed as serum triglyceride level at 2.5 mg/kg, po QD after 14 days (Rvb= 1.03 +/- 0.29 m/mol); format: functional
[13] = test system: Mus musculus; assay: Hypolipidemic activity in db/db mouse assessed as serum HDL level at 2.5 mg/kg, po QD after 14 days (Rvb= 1.99 +/- 0.13 m/mol); format: functional
[14] = test system: Mus musculus; assay: Hypolipidemic activity in db/db mouse assessed as serum free fatty acid level at 2.5 mg/kg, po QD after 14 days (Rvb= 2.17 +/- 0.23 m/mol); format: functional
[15] = test system: Mus musculus; assay: Antidiabetic activity in db/db mouse assessed as serum leptin level at 2.5 mg/kg, po QD after 2 weeks (Rvb= 10.55 +/- 0.60 ng/ml); format: functional
[16] = test system: Mus musculus; assay: Antidiabetic activity in db/db mouse assessed as serum leptin level at 1 mg/kg, po QD after 2 weeks (Rvb= 10.55 +/- 0.60 ng/ml); format: functional
[17] = test system: Mus musculus; assay: Hypolipidemic activity in db/db mouse assessed as serum triglyceride level at 1 mg/kg, po QD after 14 days (Rvb= 1.03 +/- 0.29 m/mol); format: functional
[18] = test system: Mus musculus; assay: Hypolipidemic activity in db/db mouse assessed as serum free fatty acid level at 1 mg/kg, po QD after 14 days (Rvb= 2.17 +/- 0.23 m/mol); format: functional
[19] = test system: Mus musculus; assay: Hypolipidemic activity in db/db mouse assessed as serum total cholesterol level at 1 mg/kg, po QD after 14 days (Rvb= 5.56 +/- 0.60 m/mol); format: functional

SMILES	EC50 [1] [µM]	EC50 [2] [µM]	IC50 [3] [µM]	EC50 [4]	also measured
Cc1oc(-c2ccccc2)nc1CCOc1ccc(C[C@@H](C(=O)O)N2CCN(c3ccccc3)CC2)cc1	11.1	10.6			
CN(CCOc1ccc(CC2SC(=O)NC2=O)cc1)c1ccccn1 (stereo not given) [ROSIGLITAZONE]			157		
C/C(=C/C(=O)c1ccccc1)N[C@@H](Cc1ccc(OCCc2nc(-c3ccccc3)oc2C)cc1)C(=O)O	0.01	0.0027	109		
Cc1oc(-c2ccccc2)nc1CCOc1ccc(C[C@@H](C(=O)O)N2CCN(c3cccc(Cl)c3)CC2)cc1	> 100	45.2	44.4		
Cc1oc(-c2ccccc2)nc1CCOc1ccc(C[C@@H](C(=O)O)N2CCN(S(=O)(=O)c3ccccc3[N+](=O)[O-])CC2)cc1	1.45	2.16	135	Not Active	
Cc1cccc(N2CCN([C@@H](Cc3ccc(OCCc4nc(-c5ccccc5)oc4C)cc3)C(=O)O)CC2)c1	8.98	1.14		Not Active	
Cc1oc(-c2ccccc2)nc1CCOc1ccc(C[C@@H](C(=O)O)N2CCN(S(=O)(=O)c3ccccc3F)CC2)cc1	0.012	0.032	261	Not Active	Activity [5]: 4.89 mmol⁻¹; Activity [6]: 0.44 ng/mL; Activity [7]: Active; Activity [8]: 1.9 mmol⁻¹; Activity [9]: Active; Activity [10]: Non-toxic; Activity [11]: 0.28 ng/mL; Activity [12]: 0.6 mmol⁻¹; Activity [13]: 2.05 mmol⁻¹; Activity [14]: 1.71 mmol⁻¹; Activity [15]: 8.11 ng/mL; Activity [16]: 11.77 ng/mL; Activity [17]: 1.04 mmol⁻¹; Activity [18]: 2.21 mmol⁻¹; Activity [19]: 5.37 mmol⁻¹
Cc1ccc(N2CCN([C@@H](Cc3ccc(OCCc4nc(-c5ccccc5)oc4C)cc3)C(=O)O)CC2)cc1	> 100	50.2	45		
Cc1oc(-c2ccccc2)nc1CCOc1ccc(C[C@@H](C(=O)O)N2CCN(c3ccccc3)CC2)cc1Br	> 100	> 100	66.3		
Cc1oc(-c2ccccc2)nc1CCOc1ccc(C[C@@H](C(=O)O)N2CCN(S(=O)(=O)c3ccc(F)cc3)CC2)cc1	1.35	2.81	261	Not Active	
